Article PMC10783514, “Synthesis of peptide–siRNA conjugates via internal sulfonylphosphoramidate modifications and evaluation of their in vitro activity” (Nucleic Acids Research, 2023)

Target: T1, human GLP1R (Homo sapiens, UniProt P43220)
T1 construct: expressed in transfected cells
Assay: GLP1R activity assay (CRE/luciferase reporter, cAMP potency)
Format: cell-based
Conditions: BHK cells stably co-expressing human GLP1R and CRE luciferase reporter; 3 h at 37°C; 8 concentrations; four-parameter logistic fit (Hill slope = 1); mean of n = 3 independent experiments; read-out: EC50, activation of GLP1R
Procedure: GLP1R activity was measured through cyclic adenosine monophosphate (cAMP) potency using a clonal BHK cell line that stably co-express human GLP1R and the cAMP response element (CRE) luciferase reporter gene, essentially as previously reported ([33]). Briefly, frozen stocks of assay-ready cells were thawed to 37°C, washed once with PBS, and diluted to 100 000 cells/ml in assay buffer (DMEM without phenol red supplemented with 1× GlutaMAX, 10 mM HEPES, 1 w/v% ovalbumin, and 0.1 v/v% Pluronic F-68). Serial dilutions (10-fold dilutions in assay buffer, 8 concentrations for each compound) were made for GLP1–siRNA conjugates and free peptides in 96 well dilution plates using a Biomek i7 liquid handler. Then, 50 μl of each dilution were transferred to 96-well assay plates to which 50 μl of the diluted cell suspension was added (5000 cells/well). Plates were incubated for 3 h at 37°C in 5% CO2, then left at room temperature for 5 min before 100 μl SteadyLite Plus (PerkinElmer) was added to each well. Plates were sealed from light and incubated at room temperature for 30 min while gently shaking before luminescence was detected on a Biotek Synergy 2 plate reader.
This is performed by using a luciferase reporter under the control of CRE in recombinant BHK cells constitutively expressing human GLP1R. […]

T1 sequence (P43220 24-463): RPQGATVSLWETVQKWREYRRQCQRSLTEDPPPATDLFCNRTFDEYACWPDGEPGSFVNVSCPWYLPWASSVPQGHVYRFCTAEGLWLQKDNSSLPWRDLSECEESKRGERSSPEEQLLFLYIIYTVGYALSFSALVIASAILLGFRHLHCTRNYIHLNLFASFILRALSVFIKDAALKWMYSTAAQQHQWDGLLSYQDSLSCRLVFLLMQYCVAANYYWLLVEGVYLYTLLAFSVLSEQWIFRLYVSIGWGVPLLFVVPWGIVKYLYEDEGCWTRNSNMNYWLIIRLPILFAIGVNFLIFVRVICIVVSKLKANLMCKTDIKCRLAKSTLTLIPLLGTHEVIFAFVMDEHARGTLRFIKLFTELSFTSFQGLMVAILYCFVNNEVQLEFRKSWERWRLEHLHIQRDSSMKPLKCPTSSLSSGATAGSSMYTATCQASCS

## CC[C@H](C)[C@H](NC(=O)[C@H](Cc1ccccc1)NC(=O)[C@H](CCC(=O)O)NC(=O)[C@H](CCCNC(=N)N)NC(=O)[C@H](C)NC(=O)[C@H](C)NC(=O)[C@H](CCC(N)=O)NC(=O)CNC(=O)[C@H](CCC(=O)O)NC(=O)[C@H](CC(C)C)NC(=O)[C@H](Cc1ccc(O)cc1)NC(=O)[C@H](CO)NC(=O)[C@H](CO)NC(=O)[C@@H](NC(=O)[C@H](CC(=O)O)NC(=O)[C@H](CO)NC(=O)[C@@H](NC(=O)[C@H](Cc1ccccc1)NC(=O)[C@@H](NC(=O)CNC(=O)[C@H](CCC(=O)O)NC(=O)[C@H](C)NC(=O)[C@@H](N)Cc1c[nH]cn1)[C@@H](C)O)[C@@H](C)O)C(C)C)C(=O)N[C@@H](C)C(=O)N[C@@H](Cc1c[nH]c2ccccc12)C(=O)N[C@@H](CC(C)C)C(=O)N[C@H](C(=O)N[C@@H](CCCNC(=N)N)C(=O)NCC(=O)N[C@@H](CCCNC(=N)N)C(=O)NCC(=O)N[C@@H](CCCCN)C(=O)O)C(C)C [A]
  EC50: 9 pM
